Assay results: patent US20240172756A1, “ORGANOANTIMONY(V) C[…] AND METHODS OF PRODUCTION AND USE THEREOF” (priority 2021, published 2024)

Experiments:
Type in all cases: cell-based
Cryptococcus neoformans [1] = assay: Antifungal disk diffusion assay, C. neoformans; settings: solid compound on paper disk
Description: (§1) To determine the antifungal properties of the two groups of Sb(V) cyanoximaes, Cryptococcus neoformans and Candida albicans, both of which are deadly human pathogens, were tested.
(§2) First, solid state powder compounds were deposited on paper disks and tested against two fungi: Cryptococcus neoformans and Candia albicans. Each experiment was conducted in triplicate with each compound at each concentration of deposited solid compound. The control was a blank paper (100% cotton disk).
(§3) Disk diffusion assays: No inhibition of Cryptococcus neoformans or Candida albicans for the following organoantimony(V) cyanoximate compounds at any concentration (S, ×2, ×4): H(ACO), H(ECO), H(MCO).

Candida albicans [2] = assay: Antifungal disk diffusion assay, C. albicans; settings: solid compound on paper disk
Description: as §1, §2, §3

[3] = test system: bacterial and fungal pathogens; assay: Antimicrobial activity overall (disk diffusion and MIC tests, strain not specified); settings: for antimicrobial effect in MIC assays: organism not given
Description: (§4) To determine the antimicrobial potential of the two generations (G1—based on SbPh4-core, and G2—based on SbMe3-core) of newly synthesized Sb(V) cyanoximates, several representative compounds were first selected and their antimicrobial properties tested by using disk diffusion assays, The minimal inhibitory concentrations (MIC) of selected compounds were also determined in liquid cultures. Three bacterial and two fungal pathogens were used as target microorganisms. Bacterial pathogens included Gram-negative Pseudomonas aeruginosa and Gram-positive Staphylococcus aureus, representing the ESKAPE group of human pathogens known for their high virulence and antibiotic resistance.
(§5) Two different types of antimicrobial studies were performed: 1) paper disk studies during growth on solid media; and 2) MIC determination during growth in liquid media. […] Antifungal disk assays concluded that Sb(Ph)4 (ECO) was effective against Cryptococcus neoformans and Candida albicans. […] For MIC assays, Sb(Ph)4 (MCO), the Sb(V) cyanoximate, was tested, along with the free cyanoximes H(MCO), H(ECO), and Na[H(ACO)2].

Pseudomonas aeruginosa = assay: MIC in liquid culture, P. aeruginosa; settings: for MIC, P. aeruginosa: Table 1
Description: as §4
(§6) MIC of the 3rd generation compounds, as well as complete MIC measurements for the 2nd generation Sb(V) compounds, are determined. A dilution assay in a 96-well-plate format, the gold standard for measuring MICS recommended by the Clinical Laboratory Standards Institute (CLSI), is utilized. Prior to plate inoculation, bacterial cultures of P. aeruginosa PAO1, S. aureus NRS70, E. foecium CC17, and E. coli S17 are grown in Mueller Hinton Broth (MHB) to middle log phase as determined by the individual growth curves and diluted to obtain absorbance at 600 nm of 0.1. These normalized cultures are diluted 1:100 using MHB and inoculated into the fresh medium with serially diluted Sb(V) compounds in 96-well plates. The plates are incubated for 24 h at 37° C. For fungal pathogens, cultures of Cryptococcus neoformans strain H99 and Candida albicans strain SC5314 are grown to stationary phase in YPD medium for 18 h at 30° C. Following incubation, fungal cells are centrifuged, washed three times with PBS, and then counted with trypan blue exclusion. Each compound is screened using a microdilution assay with 0.5×10^3 fungal cells in RPMI-MOPS medium at 35° C. for 48 h. Following incubations for bacterial or fungal pathogens, the OD600 is measured using a Biotek Synergy HT microtiter plate reader ([…].). The MIC is defined as the lowest concentration that inhibits growth. An aliquot from the clear wells from the MIC assay is plated on agar to determine minimum bactericidal concentration (MBC) or minimum fungicidal concentration (MFC). Each experiment is based on at least three biological replicates and repeated for consistency. The MIC and MBC for each compound is compared to those obtained for clinically applied antibiotics/antifungals. For bacterial pathogens, the corresponding antibiotics, such as tobramycin (P. aeruginosa), trimethoprim (S. aureus), gentamicin (E. coli) and ampicillin (E. foecium), are used. For fungal pathogens, the data is compared to the antifungal drugs Amphotericin B and Caspofungin for C. neoformans and C. albicans, respectively, by using the CLSI method.
as §5
(§7) MIC assays: The MIC assay protocol utilized for determination of the effects of various organoantimony(V) cyanoximate compounds in various bacteria is shown in FIG. 16. Each solubilized in DMSO at 5 mg/ml, starting concentration is 100 μg/ml. Error bars represent standard error of the mean (if none, the values were identical in each experiment). Untested compounds have no bar. Bars reaching 100 μg/ml were not considered to have antifungal activity.

Escherichia coli = assay: MIC in liquid culture, E. coli; settings: for MIC, E. coli: Table 1
Description: as §4, §6, §5, §7

Cryptococcus neoformans [4] = assay: MIC assay, C. neoformans; settings: for MIC, C. neoformans: Table 1
Description: as §1, §6
(§8) Second, the compounds were dissolved in DMSO to […], and their minimal inhibitory concentration (MIC) was determined against C. neoformans and C. albicans. Starting concentration used was 100 μg/ml, and then diluted 1:2.
as §7

Candida albicans [5] = assay: MIC assay, C. albicans; settings: for MIC, C. albicans: Table 1
Description: as §1, §6, §8, §7

Staphylococcus aureus = assay: MIC in liquid culture, S. aureus; settings: for MIC, S. aureus: Table 1
Description: as §4, §6, §5, §7

[6] = in DMSO, starting concentration 100 μg/ml, active if MIC below 100 μg/ml

Compound | MIC, P. aeruginosa (Pseudomonas aeruginosa) | MIC, E. coli (Escherichia coli) | MIC, C. neoformans (Cryptococcus neoformans [4]) | MIC, C. albicans (Candida albicans [5]) | MIC, S. aureus (Staphylococcus aureus) | further results
N#C/C(=N\O)C(N)=O [H(ACO), reference compound] | – | – | – | – | – | antifungal activity / zone of inhibition in disk assay (Cryptococcus neoformans [1]): No inhibition; antifungal activity / zone of inhibition in disk assay (Candida albicans [2]): No inhibition; antimicrobial activity [3]: most antimicrobially active
CCOC(=O)/C(C#N)=N/O [H(ECO), reference compound] | – | – | – | – | – | antifungal activity / zone of inhibition in disk assay (Cryptococcus neoformans [1]): No inhibition; antifungal activity / zone of inhibition in disk assay (Candida albicans [2]): No inhibition; antimicrobial effect in MIC assays [3]: no antimicrobial effect
N#CC(=NO)C(N)=O.N#CC(=N[O-])C(N)=O.[Na+] [Na[H(ACO)2]] | – | – | – | – | – | antimicrobial effect in MIC assays [3]: no antimicrobial effect
[CH3][Sb]([CH3])([CH3])([O]N=C(C#N)c1ccc(Cl)cc1Cl)[O]N=C(C#N)c1ccc(Cl)cc1Cl [SbMe3(2,4-ClPhCO)2] | >200 µg/mL | >200 µg/mL | >100 µg/mL | >100 µg/mL | – | –
[CH3][Sb]([CH3])([CH3])([O]N=C(C#N)c1c(Cl)cccc1Cl)[O]N=C(C#N)c1c(Cl)cccc1Cl [SbMe3(2,6-ClPhCO)2] | >200 µg/mL | 50 µg/mL | >100 µg/mL | >100 µg/mL | – | antimicrobial activity [3]: pronounced antimicrobial activity
[CH3][Sb]([CH3])([CH3])([O]N=C(C#N)c1ccccc1Cl)[O]N=C(C#N)c1ccccc1Cl [SbMe3(2-ClPhCO)2] | >200 µg/mL | >200 µg/mL | >100 µg/mL | >100 µg/mL | >200 µg/mL | –
CCOC(=O)C(C#N)=N[O][Sb]([CH3])([CH3])([CH3])[O]N=C(C#N)C(=O)OCC [SbMe3(ECO)2] | >200 µg/mL | >200 µg/mL | – | – | >200 µg/mL | –
[CH3][Sb]([CH3])([CH3])([O]N=C(C#N)C(=O)N1CCOCC1)[O]N=C(C#N)C(=O)N1CCOCC1 [SbMe3(MCO)2] | 50 µg/mL | >200 µg/mL | – | – | >200 µg/mL | antimicrobial activity [3]: pronounced antimicrobial activity
[CH3][Sb]([CH3])([CH3])([O]N=C(C#N)C(N)=S)[O]N=C(C#N)C(N)=S [SbMe3(TCO)2] | >200 µg/mL | >200 µg/mL | – | – | – | –
CN(C)C(=S)C(C#N)=N[O][Sb]([CH3])([CH3])([CH3])[O]N=C(C#N)C(=S)N(C)C [SbMe3(TDCO)2] | >200 µg/mL | >200 µg/mL | – | – | – | –
[CH3][Sb]([CH3])([CH3])([Br])[Br] [SbMe3Br2, triemethylantimony(V) dibromide, reference compound] | 50 µg/mL | 150 µg/mL | >100 µg/mL | >100 µg/mL | 100 µg/mL | –
N#CC(=N[O][Sb]([c]1ccccc1)([c]1ccccc1)([c]1ccccc1)[c]1ccccc1)C(=O)N1CCOCC1 [SbPh4MCO] | 200 µg/mL | >200 µg/mL | 19.8 µg/mL | 32.1 µg/mL | 100 µg/mL | concentration with fungicidal activity (killed C. neoformans) (Cryptococcus neoformans [4]; Example 6): 100 µg/mL; MIC with C. neoformans (Cryptococcus neoformans [4]; Example 6, three independent experiments): 22.5 µg/mL; antifungal activity in MIC assay (Cryptococcus neoformans [4]; [6]): exhibited antifungal activity; antifungal activity in MIC assay (Candida albicans [5]; [6]): exhibited antifungal activity
CN(C)C(=S)C(C#N)=N[O][Sb]([c]1ccccc1)([c]1ccccc1)([c]1ccccc1)[c]1ccccc1 [SbPh4TDCO] | >200 µg/mL | >200 µg/mL | 33.3 µg/mL | 100 µg/mL | 100 µg/mL | antimicrobial effect (Pseudomonas aeruginosa; strain PAO1, paper disk and MIC studies): essentially no antimicrobial activity; antimicrobial effect (Escherichia coli; strain S17, paper disk and MIC studies): essentially no antimicrobial activity; antimicrobial effect (Staphylococcus aureus; Methicillin-resistant strain NRS70, paper disk and MIC studies): significant effects; antifungal activity / zone of inhibition in disk assay (Cryptococcus neoformans [1]): effective; antifungal activity / zone of inhibition in disk assay (Candida albicans [2]): only effective at inhibition of Cryptococcus neoformans
